Several values for one entry are separate records, joined by “and”; a condition that tells them apart may be missing. Equal entries are not always repeated. Where two headings read alike, the source gives them in different places.
Assays:
DNA [1] = assay: Rate constant of photoreaction with DNA; format: biochemical; settings: irradiation
Description: (§1) The 6-alkylangelicins show a strong affinity with DNA in the dark, thus forming molecular intercalated complexes; moreover the 6-methylangelicins complexed to DNA by irradiation bind very strongly to the macromolecule, inducing only monofunctional lesions (Table I).
(§2) Binding parameters of the complexes between 6-alkylangelicins and DNA
and rate constant of their photoreactions with the macromolecule.

albino guinea-pig skin = assay: Skin erythemogenic activity / skin phototoxicity on albino guinea-pig skin; settings: in vivo
Description: (§3) The 6-alkylangelicins show a strong antiproliferative activity in Ehrlich ascites tumor cells (Table II) and on the skin of mice in terms of DNA synthesis inhibition (Table III). These compounds are practically unable to induce skin phototoxicity on albino guinea-pig skin (Table II).
(§4) (a) Determined according to Bordin et al., Il Farmaco, Ed.Sc., 36, 506,

E. coli WP2-uvr A = format: cell-based
Method: Mutagenic activity of 6-alkylangelicins on E. coli
WP2-uvr A by irradiation with UV-A (a).
(a) The test was performed at the furocoumarin concentration of 5 μg/m
according to Venturini et al., Chem. Biol. Interactions, 30, 203, 1980.

[2] = test system: Ehrlich ascites tumor cells; assay: Inhibition of DNA synthesis in Ehrlich ascites tumor cells; format: cell-based; settings: relative to angelicin = 100
Description: as §3, §4

DNA [3] = assay: Binding parameters of the complexes between 6-alkylangelicins and DNA (in the dark); design: K values: unit not given here; settings: for -n (number of nucleotides occluded by one bound molecule) / l/-n (frequency of binding sites, ligands bound per nucleotide): according to Mc Ghee and Von Hippel; for K values: complex with DNA
Description: as §1, §2
^a According to Mc Ghee and Von Hippel, (J.Mol. Biol., 86, 469, 1974)
-n is defined here as the number of nucleotides occluded by one bound
molecule of angelicin derivative.
^b l/-n defines, according to Mc Ghee and Von Hippel, the frequency o
binding sites; in other words, the number of ligands bound per nucleotide
and can be considered analogous to the "-n" value obtained by the classic
Scratchard method (Ann. N.Y. Acad. Sci., 51, 660, 1949).

epidermal DNA synthesis [4] = assay: Inhibition of epidermal DNA synthesis in the mouse in vivo after oral administration and UV-A irradiation; settings: light or radiation study, read-out: % inhibition of epidermal DNA synthesis
Method: The strong activity of the 6-alkylangelicins according to the invention in inhibiting the epidermal DNA synthesis of mice after oral administration (see Table VI) allows to consider these compounds effective also by oral administration in humans and UV-A irradiation.
Inhibition of epidermal DNA synthesis
in the mouse "in vivo" after oral
administration of the compound (250 mg/kg)
and UV-A irradiation (9 J/cm^2) (a).
as §4

[5] = Acute toxicity (LD50) in mice; settings: mouse, in vivo
psoriatic lesions = settings: for % clearance: topical 5 μg/cm^2 + UV-A (maximal dose 4-10 J/cm^2), 9-15 treatments; for dark pigmentation of human skin: treated area, patients
Method: In the treated patients various areas 4×4 cm of the affected skin were used:
a) in the first area an ethanolic solution (0.1% W/V) of the compound under investigation, was applied until a concentration of 5 μg/cm^2 was reached and left to evaporate by the heat of the body (or by hot air stream).
c) a third area was treated in the same way as area a), but was not irradiated with UV-A;
d) a fourth area was irradiated as in a) with the same dose of UV-A light in the absence of any compound.

epidermal DNA synthesis [6] = assay: Inhibition of epidermal DNA synthesis in the mouse in vivo after topical application and UV-A irradiation; settings: topical 50 μg/cm^2, UV-A 9 J/cm^2, ± S.E.
Method: Inhibition of epidermal DNA synthesis in the mouse "in vivo"
after topical application (50 μg/cm^2) of the compound and

DNA [7] = settings: reference compound; data from Dall'Acqua et al. 1979; cited from earlier work
DNA [8] = settings: reference compound; data from Dall'Acqua et al. 1979; cited from earlier work; remark: listed apart in the source
mice = assay: Acute toxicity (LD50) in mice; settings: mice, per os; 6,4'-dimethylangelicin in methylcellulose suspension
[9] = UV-A irradiation time 10 seconds
[10] = UV-A irradiation time 20 seconds
[11] = UV-A irradiation time 30 seconds
[12] = mouse in vivo, oral 250 mg/kg, UV-A 9 J/cm^2, ± S.E.
[13] = UV-A irradiation time 60 seconds

Row | Compound | rate constant of photoreaction with DNA (DNA [1]) [min^-1 × 10^2] | skin erythemogenic activity (albino guinea-pig skin) | no of mutants per 10^6 survivors (E. coli WP2-uvr A; [9]) | no of mutants per 10^6 survivors (E. coli WP2-uvr A; [10]) | no of mutants per 10^6 survivors (E. coli WP2-uvr A; [11]) | Relative activity (inhibition of DNA synthesis in Ehrlich ascites tumor cells) [2] | -n (number of nucleotides occluded by one bound molecule) (DNA [3]) | l/-n (frequency of binding sites, ligands bound per nucleotide) (DNA [3]) | K values (DNA [3]) | inhibition at 250 mg/kg (epidermal DNA synthesis [4]; [12]) [%] | % inhibition of epidermal DNA synthesis (epidermal DNA synthesis [6]) [%] | no of mutants per 10^6 survivors (E. coli WP2-uvr A; [13]) | also measured
1 | Cc1cc2ccc(=O)oc2c2c(C)coc12 [6,4'-dimethylangelicin] | 9.90 | - | 0.96 mutants per 10^6 survivors | 1.76 mutants per 10^6 survivors | 2.63 mutants per 10^6 survivors | 1096 | 16.39 | 0.061 ± 0.003 | 6,300 ± 541 | 49.2 ± 8 | 36.56 ± 3.9 |  | skin phototoxicity on guinea-pig skin (albino guinea-pig skin): absence of skin phototoxicity on guinea-pig skin; genotoxicity, mutagenic activity (E. coli WP2-uvr A): low genotoxicity; LD50 ([5]; ip): 750 mg/kg; LD50 ([5]; po): > 2000 mg/kg; pigmental capacity (psoriatic lesions; single psoriatic patients, topical 5 μg/cm^2 + UV-A): +; % clearance (psoriatic lesions; single psoriatic patients, listed as 6,4'-DMA): 100% and 90%; dark pigmentation of human skin (psoriatic lesions): evident dark pigmentation in the treated area, less pronounced than that induced by 8-MOP
2 | Cc1cc(=O)oc2c1cc(C)c1occ(C)c12 [6,4,4'-trimethylangelicin] | 13.30 | - | 0.84 mutants per 10^6 survivors | 1.18 mutants per 10^6 survivors | 1.24 mutants per 10^6 survivors | 41666 | 10.99 | 0.091 ± 0.0045 | 10,100 ± 1190 | 67.7 ± 8.2 |  | 1.98 mutants per 10^6 survivors | skin phototoxicity on guinea-pig skin (albino guinea-pig skin): absence of skin phototoxicity on guinea-pig skin; genotoxicity, mutagenic activity (E. coli WP2-uvr A): low genotoxicity; % clearance (psoriatic lesions; single psoriatic patients, listed as 6,4,4'-TMA): 100% and 95% and 90%; dark pigmentation of human skin (psoriatic lesions): appears more active
3 | Cc1cc2c(o1)c(C)cc1c(C)cc(=O)oc12 [6,4,5'-trimethylangelicin] | 7.02 | - | 0.62 mutants per 10^6 survivors | 0.91 mutants per 10^6 survivors | 1.23 mutants per 10^6 survivors | 646 | 22.22 | 0.045 ± 0.002 | 3,310 ± 281 | 36.8 ± 8.5 |  | 1.93 mutants per 10^6 survivors | 
4 | Cc1cc(=O)oc2c1cc(C)c1occc12 [6,4-dimethylangelicin] | 5.23 | - | 0.24 mutants per 10^6 survivors | 0.7 mutants per 10^6 survivors | 0.99 mutants per 10^6 survivors | 625 | 15.87 | 0.063 ± 0.003 | 2,990 ± 232 | 58.4 ± 13 | 47.05 ± 4.3 | 1.83 mutants per 10^6 survivors | 
5 | Cc1cc2c(o1)c(C)cc1ccc(=O)oc12 [6,5'-dimethylangelicin] | 3.00 | - |  |  |  | 210 | 12.82 | 0.078 ± 0.004 | 1,975 ± 136 | 22.5 ± 12 |  |  | 
6 | Cc1cc2c(o1)c(C)c(C)c1ccc(=O)oc12 [6,5,5'-trimethylangelicin] | 2.30 |  |  |  |  |  | 14.29 | 0.070 ± 0.0035 | 3,730 ± 339 | 60.6 ± 14.1 | 36.01 ± 11.7 |  | 
7 | Cc1c(C)c2occc2c2oc(=O)ccc12 [6,5-dimethylangelicin] |  |  |  |  |  |  |  |  |  | 50.1 ± 19 | 52.83 ± 2.3 |  | 
8 | Cc1cc2ccc(=O)oc2c2ccoc12 [6-methylangelicin] | 3.60 | - |  |  |  | 95 | 20.83 | 0.048 ± 0.002 | 925 ± 64 | 19.6 ± 9.2 | 29.25 ± 13.3 |  | 
9 | COc1c2occc2cc2ccc(=O)oc12 [8-MOP, 8-methoxypsoralen, reference compound] |  | ++ | 0.4 mutants per 10^6 survivors | 1.15 mutants per 10^6 survivors | 1.5 mutants per 10^6 survivors |  |  |  |  | 39.1 ± 3.7 | 61.0 ± 1.6 | 3.1 mutants per 10^6 survivors | -n (number of nucleotides occluded by one bound molecule) (DNA [7]): 7.81; K values (DNA [7]): 736; l/-n (frequency of binding sites, ligands bound per nucleotide) (DNA [7]): 0.128; rate constant of photoreaction with DNA (DNA [8]): 3.10 min^-1 × 10^2; no of mutants per 10^6 survivors (E. coli WP2-uvr A; UV-A irradiation time 90 seconds): 7.0 mutants per 10^6 survivors; LD50 (mice): 750 mg/kg; LD50 ([5]; ip): 300 mg/kg; induction of skin erythema in humans (psoriatic lesions; human, in vivo): severe phototoxic response
10 | O=c1ccc2ccc3occc3c2o1 [angelicin] | 1.10 |  |  |  |  |  | 15.87 | 0.063 ± 0.003 | 560 |  | 17.5 ± 2.5 |  | inhibition at 250 mg/kg (epidermal DNA synthesis [4]; Mus musculus, po): 28 ± 2%

Reference: US5179217A, “Method of preparing photochemotherapic alkylangelicin compounds” (priority 1982, dated 1993)
